# Measured values from PMC10891769, “Chirality and Rigidity in Triazole-Modified Peptidomimetics Interacting with Neuropilin-1” (Pharmaceuticals, 2024).
# Several values for one entry are separate records, joined by “and”; a condition that tells them apart may be missing. Identical values can stand only once. No end group written: not given here.
# Target: T1, recombinant human NRP-1 (hNRP-1) (Homo sapiens, UniProt O14786)
# T1 construct: purchased BioLegend, San Diego, CA, USA
# Assay: chemoluminescence affinity detection: displacement of biotinylated VEGF165A from coated NRP-1
# Assay type: binding
# Conditions: VEGF 165A displacement from NRP-1; compounds at 12.5-100 µM; ± standard (fitting) error
# T1 sequence (O14786 22-923): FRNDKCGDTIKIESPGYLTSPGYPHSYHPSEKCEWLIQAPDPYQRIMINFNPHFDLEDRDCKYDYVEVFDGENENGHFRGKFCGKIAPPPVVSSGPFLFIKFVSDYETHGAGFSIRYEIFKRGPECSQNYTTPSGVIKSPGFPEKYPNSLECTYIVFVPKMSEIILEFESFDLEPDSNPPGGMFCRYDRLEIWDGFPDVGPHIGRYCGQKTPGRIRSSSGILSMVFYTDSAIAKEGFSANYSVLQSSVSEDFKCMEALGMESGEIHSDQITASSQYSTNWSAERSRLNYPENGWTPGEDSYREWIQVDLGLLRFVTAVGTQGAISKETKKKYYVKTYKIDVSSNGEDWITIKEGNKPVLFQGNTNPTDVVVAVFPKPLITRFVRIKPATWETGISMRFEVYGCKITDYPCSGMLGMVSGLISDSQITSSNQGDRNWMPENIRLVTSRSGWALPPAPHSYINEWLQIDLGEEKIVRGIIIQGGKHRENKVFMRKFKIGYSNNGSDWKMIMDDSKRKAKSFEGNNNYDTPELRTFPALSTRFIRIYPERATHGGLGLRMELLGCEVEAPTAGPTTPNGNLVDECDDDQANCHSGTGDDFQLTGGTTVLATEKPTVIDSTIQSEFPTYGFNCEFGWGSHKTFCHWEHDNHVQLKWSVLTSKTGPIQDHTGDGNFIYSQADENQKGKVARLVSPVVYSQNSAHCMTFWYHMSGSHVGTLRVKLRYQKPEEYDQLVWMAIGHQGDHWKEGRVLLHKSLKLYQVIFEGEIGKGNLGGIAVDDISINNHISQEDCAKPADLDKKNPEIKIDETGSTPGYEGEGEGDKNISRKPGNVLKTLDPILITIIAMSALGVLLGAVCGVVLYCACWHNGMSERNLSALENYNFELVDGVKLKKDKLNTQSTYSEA
row,IC50,Molecule
1,63.6 ± 2.3 µM,"N=C(N)NCCCC[C@H](N)C(=O)NCCCC[C@@H](N)C(=O)NCc1cn(Cc2cn([C@@H](CCCNC(=N)N)C(=O)O)nn2)nn1 [1D, H-D-Lys(Har)-Gly[Trl]Gly[Trl]Arg-OH]"
2,36 µM and 35.6 µM,"CC(C)(NC(=O)[C@H](N)CCCCNC(=O)[C@@H](N)CCCCNC(=N)N)c1cn(Cc2cn([C@@H](CCCNC(=N)N)C(=O)O)nn2)nn1 [4D, H-D-Lys(Har)-Mba[Trl]Gly[Trl]Arg-OH]"
3,68.5 ± 3.3 µM,"N=C(N)NCCCC[C@H](N)C(=O)NCCCC[C@H](N)C(=O)NCc1cn(Cc2cn([C@@H](CCCNC(=N)N)C(=O)O)nn2)nn1 [1L, H-Lys(Har)-Gly[Trl]Gly[Trl]Arg-OH]"
4,87.5 ± 3.3 µM,"CC(C)(c1cn([C@@H](CCCNC(=N)N)C(=O)O)nn1)n1cc(CNC(=O)[C@@H](N)CCCCNC(=O)[C@@H](N)CCCCNC(=N)N)nn1 [2L, H-Lys(Har)-Gly[Trl]Mba[Trl]Arg-OH]"
5,91 µM and 90.5 µM,"CC(C)(NC(=O)[C@H](N)CCCCNC(=O)[C@@H](N)CCCCNC(=N)N)c1cn(C(C)(C)c2cn([C@@H](CCCNC(=N)N)C(=O)O)nn2)nn1 [3D, H-D-Lys(Har)-Mba[Trl]Mba[Trl]Arg-OH]"
6,69.4 ± 4 µM,"CC(C)(c1cn([C@@H](CCCNC(=N)N)C(=O)O)nn1)n1cc(CNC(=O)[C@H](N)CCCCNC(=O)[C@@H](N)CCCCNC(=N)N)nn1 [2D, H-D-Lys(Har)-Gly[Trl]Mba[Trl]Arg-OH]"
7,31.2 ± 4.2 µM,"ATWLPPR [A7R, ATWLPPR, reference compound]"
8,23 µM and 23.4 µM,"CC(C)(NC(=O)[C@@H](N)CCCCNC(=O)[C@@H](N)CCCCNC(=N)N)c1cn(C(C)(C)c2cn([C@@H](CCCNC(=N)N)C(=O)O)nn2)nn1 [3L, H-Lys(Har)-Mba[Trl]Mba[Trl]Arg-OH]"
